Assay results reported in article PMC6007937, “A cell-based infection assay identifies efflux pump modulators that reduce bacterial intracellular load” (PLoS Pathogens, 2018).
Read-outs that look alike come from different tables or passages of the source.

Biological target: AcrB (Escherichia coli, UniProt P31224)
Experiment: isothermal titration calorimetry (ITC)
Format: binding

AcrB, sequence (P31224 whole entry): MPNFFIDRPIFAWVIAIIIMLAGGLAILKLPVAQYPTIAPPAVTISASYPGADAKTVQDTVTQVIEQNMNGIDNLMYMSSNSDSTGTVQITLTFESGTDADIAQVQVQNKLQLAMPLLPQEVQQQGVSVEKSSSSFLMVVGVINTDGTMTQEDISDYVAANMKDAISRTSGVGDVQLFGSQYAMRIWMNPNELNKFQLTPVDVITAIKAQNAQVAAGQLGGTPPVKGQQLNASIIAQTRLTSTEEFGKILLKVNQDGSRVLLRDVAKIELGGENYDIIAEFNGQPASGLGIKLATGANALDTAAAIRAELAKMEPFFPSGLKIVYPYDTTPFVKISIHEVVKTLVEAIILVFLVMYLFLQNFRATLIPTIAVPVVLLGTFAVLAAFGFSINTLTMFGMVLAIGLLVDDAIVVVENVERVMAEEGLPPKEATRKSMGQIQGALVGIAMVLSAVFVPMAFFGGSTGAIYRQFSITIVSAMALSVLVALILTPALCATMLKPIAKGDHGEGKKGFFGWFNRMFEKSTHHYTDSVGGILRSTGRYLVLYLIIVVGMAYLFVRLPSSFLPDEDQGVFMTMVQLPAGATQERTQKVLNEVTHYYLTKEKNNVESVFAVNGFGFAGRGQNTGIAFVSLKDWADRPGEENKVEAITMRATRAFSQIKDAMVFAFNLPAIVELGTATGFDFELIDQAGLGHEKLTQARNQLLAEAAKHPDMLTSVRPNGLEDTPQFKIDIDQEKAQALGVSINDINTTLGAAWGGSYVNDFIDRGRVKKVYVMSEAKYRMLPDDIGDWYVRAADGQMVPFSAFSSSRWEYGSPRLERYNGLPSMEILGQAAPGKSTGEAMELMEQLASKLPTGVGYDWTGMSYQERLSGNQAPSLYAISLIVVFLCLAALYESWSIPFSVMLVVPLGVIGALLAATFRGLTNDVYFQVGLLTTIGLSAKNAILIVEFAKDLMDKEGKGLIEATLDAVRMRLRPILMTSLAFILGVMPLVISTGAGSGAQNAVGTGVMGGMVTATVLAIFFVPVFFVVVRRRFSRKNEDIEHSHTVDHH

SMILES | Kd (read-out: KD) | Kd
CC(C)(C)c1nc(NC(=N)N)sc1Br [EPM30] | 1790 ± 370 nM | –
OC(COc1ccc(Cl)c(Cl)c1)CN1CCC(Nc2nccc(C(F)(F)F)n2)CC1 (stereo not drawn) [EPM35] | – | 290 ± 30 nM
Cc1ccc(Sc2cccc3nc(N)nc(N)c23)cc1 [EPM43] | 560 ± 60 nM | –
